Reference: patent US8987171B2, “Selective herbicides with activator adjuvants” (W. Neudorff GmbH KG, priority 2010, dated 2015)
Read-outs that look alike come from different tables or passages of the source.

Columns and labels:
black medic = test: Greenhouse black medic and turf test, iron chelates with Sylgard 309 (Example 2): black medic damage; type: in vivo; conditions: sprayed twice at 200 ml/m^2, 7 days after first spraying, visual rating 0-100%
Description: (§1) The following non-limiting examples serve to further describe the invention. Unless otherwise specified, all of the iron solutions were made using the same molar concentration of iron ion as chelating agent. Samples were prepared by diluting a metal chelate, such as iron GLDA (Dissolvine GL-Fe-5), iron EDDS (Enviomet C320), or iron HEDTA (Neu 1173H), to the desired level of iron as specified using simple stirring. Neu 1173H contains the stabilizer sodium citrate at 1.5% prior to dilution. Dilutions of Neu1173H to the level of 0.25% Fe, incorporates 0.08% sodium citrate into the spray solutions. Adjuvants (Sylgard® 309, Biosoft®D-40, Tween® 20), were then diluted and added to the diluted metal chelate. Samples were usually prepared within 48 hours of spraying. All of the outside tests were done on areas of mixed grass and white clover that were at least 2 months old. For the greenhouse tests, white clover and black medic were grown in a commercial greenhouse mix using supplemental lighting and heating. Each plant was grown in a 2¼ inch pot to a minimum diameter of 15-20 cm. Perennial ryegrass was grown in 2¼ inch pots in the same greenhouse conditions as above and they are at least 4 weeks old at the time of application. […]
(§2) All plant damage was visually assessed using a percentage rating scale from 0 (no injury) to 100% (death). […]

white clover [1] = test: Greenhouse white clover and turf test, iron chelates with Sylgard 309 (Example 1): white clover damage; type: in vivo, white clover (Trifolium repens); conditions: sprayed twice at 200 ml/m^2, 7 days after second spraying, visual rating 0-100%
Description: as §1, §2

perennial ryegrass [2] = test: Greenhouse white clover and turf test, iron chelates with Sylgard 309 (Example 1): grass damage; type: in vivo; conditions: sprayed twice at 200 ml/m^2, 7 days after second spraying, visual rating 0 (no injury) to 100% (death)
Description: as §1, §2

park lawn [3] = test: Field white clover and turf test, iron chelates with Bio-Soft D-40 (Example 4): grass damage; type: in vivo; conditions: sprayed twice at 200 ml/m^2, 14 days after second spraying, visual rating 0-100%
Description: as §1, §2

perennial ryegrass [4] = test: Greenhouse black medic and turf test, iron chelates with Sylgard 309 (Example 2): grass damage; type: in vivo; conditions: sprayed twice at 200 ml/m^2, 7 days after first spraying, visual rating 0-100%
Description: as §1, §2

white clover [5] = test: Greenhouse white clover and turf test, iron chelates with Tween 20 (Example 5): white clover damage; type: in vivo, white clover (Trifolium repens); conditions: sprayed twice at 200 ml/m^2, one day after first spraying, visual rating 0-100%
Description: as §1, §2

white clover [6] = test: Field white clover and turf test, iron chelates with Bio-Soft D-40 (Example 4): white clover damage; type: in vivo, white clover (Trifolium repens); conditions: sprayed twice at 200 ml/m^2, 14 days after second spraying, visual rating 0-100%
Description: as §1, §2

perennial ryegrass [7] = type: in vivo; conditions: greenhouse, sprayed twice at 200 ml/m^2, one day after first spraying, visual rating 0-100%
Description: as §1, §2

English daisy [8] = test: Field English daisy and turf test, iron chelates with Sylgard 309 (Example 8): English daisy damage; type: in vivo, English daisy (Bellis perennis); conditions: sprayed twice at 200 ml/m^2, 5 days after first spraying, visual rating 0-100%
Description: as §1, §2

park lawn [9] = test: Field English daisy and turf test, iron chelates with Sylgard 309 (Example 8): grass damage; type: in vivo; conditions: sprayed twice at 200 ml/m^2, 5 days after first spraying, visual rating 0-100%
Description: as §1, §2

white clover [10] = test: Greenhouse white clover and turf test, iron chelates with Bio-Soft D-40 (Example 3): white clover damage; type: in vivo, white clover (Trifolium repens); conditions: sprayed twice at 200 ml/m^2, one day after first spraying, visual rating 0-100%
Description: as §1, §2

perennial ryegrass [11] = test: Greenhouse white clover and turf test, iron chelates with Tween 20 (Example 5): grass damage; type: in vivo; conditions: sprayed twice at 200 ml/m^2, one day after first spraying, visual rating 0-100%
Description: as §1, §2

dandelion = test: Greenhouse dandelion and turf test, iron chelates with Sylgard 309 (Example 7): dandelion damage; type: in vivo, dandelion (Taraxacum officinale); conditions: sprayed twice at 200 ml/m^2, 7 days after first spraying, visual rating 0-100%
Description: as §1, §2

perennial ryegrass [12] = test: Greenhouse dandelion and turf test, iron chelates with Sylgard 309 (Example 7): grass damage; type: in vivo; conditions: sprayed twice at 200 ml/m^2, 7 days after first spraying, visual rating 0-100%
Description: as §1, §2

park lawn [13] = test: Field English daisy and turf test, iron chelates with Sylgard 309 and Bio-Soft D-40 (Example 9): grass damage; type: in vivo; conditions: sprayed twice at 100 ml/m^2, 7 days after first spraying, visual rating 0-100%
Description: as §1, §2

white clover [14] = test: Greenhouse white clover and turf test, iron chelates with Sylgard 309 (Example 6): white clover damage; type: in vivo, white clover (Trifolium repens); conditions: sprayed twice at 200 ml/m^2, 14 days after second spraying, visual rating 0-100%
Description: as §1, §2

English daisy [15] = test: Field English daisy and turf test, iron chelates with Sylgard 309 and Bio-Soft D-40 (Example 9): English daisy damage; type: in vivo, English daisy (Bellis perennis); conditions: sprayed twice at 100 ml/m^2, 7 days after first spraying, visual rating 0-100%
Description: as §1, §2

perennial ryegrass [16] = test: Greenhouse white clover and turf test, iron chelates with Sylgard 309 (Example 6): grass damage; type: in vivo; conditions: sprayed twice at 200 ml/m^2, 14 days after second spraying, visual rating 0-100%
Description: as §1, §2

Substance: iron ethylenediaminedisuccinate [FeEDDS 2.49% a.i. (0.4% Fe)]
- Black Medic Damage (%) (black medic): 28%
- White Clover Damage (%) (white clover [1]): 27%
- Grass Damage (%) (perennial ryegrass [2]): 3%
- Grass Damage (%) (park lawn [3]): 1%
- Grass Damage (%) (perennial ryegrass [4]): 2%
- White Clover Damage (%) (white clover [5]): 18%
- White Clover Damage (%) (white clover [6]): 38%
- Grass Damage (%) (perennial ryegrass [7]): 1%
- English daisy Damage (%) (English daisy [8]): 39%
- Grass Damage (%) (park lawn [9]): 4%
- White Clover Damage (%) (white clover [10]): 15%
- Grass Damage (%) (perennial ryegrass [11]): 0%

Substance: iron glutamicaciddiacetic acid [FeGLDA 2.28% a.i. (0.4% Fe)]
- White Clover Damage (%) (white clover [1]): 7%
- Grass Damage (%) (perennial ryegrass [2]): 8%
- Dandelion Damage (%) (dandelion): 38%
- Grass Damage (%) (perennial ryegrass [7]): 0%
- Grass Damage (%) (perennial ryegrass [12]): 6%
- White Clover Damage (%) (white clover [10]): 8%

Substance: iron hydroxyethylenediaminetriacetic acid [FeHEDTA 1.5% a.i (0.25% Fe)]
- Black Medic Damage (%) (black medic): 54%
- Grass Damage (%) (park lawn [13]): 2%
- Grass Damage (%) (perennial ryegrass [4]): 3%
- White Clover Damage (%) (white clover [14]): 46%
- English daisy Damage (%) (English daisy [15]): 81%
- Grass Damage (%) (perennial ryegrass [16]): 2%
